Data taken from patent US20240391930A1, “SPIROCYCLIC BICYCLIC MODULATORS OF CHOLESTEROL BIOSYNTHESIS AND THEIR USE FOR PROMOTING REMYELINATION” (GENENTECH, INC., priority 2021, published 2024).

Experiments:
[1] = target: T1, human emopamil binding protein and human 7-dehydrocholesterol reductase (hEBP-DHCR7) (Homo sapiens, UniProt Q15125); assay: hEBP-DHCR7 radioligand filtration binding assay; conditions: membranes of HEK293 co-expressing hEBP and DHCR7; [3H] 2-thia-6-azaspiro[3.4]octane radioligand; 8 doses 0.06 to 5000 nM
T1 construct: expressed in transfected cells; host or cells: HEK 293 cells, transient transfection with 2 DNA constructs
T1 sequence (Q15125 whole entry): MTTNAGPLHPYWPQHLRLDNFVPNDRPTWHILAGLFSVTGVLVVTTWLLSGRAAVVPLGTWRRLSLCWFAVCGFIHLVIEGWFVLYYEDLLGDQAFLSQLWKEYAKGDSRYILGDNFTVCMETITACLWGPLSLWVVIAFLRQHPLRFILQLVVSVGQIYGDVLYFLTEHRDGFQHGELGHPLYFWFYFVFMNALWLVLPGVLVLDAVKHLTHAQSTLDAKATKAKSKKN
Procedure, shortened: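 Membranes from HEK293 cells transiently co-expressing human EBP and DHCR7 (10 μg/well) incubated 3 h at 22 °C with tritiated 2-thia-6-azaspiro[3.4]octane dioxide radioligand (25 nM stock addition) and compound at 0.06–5000 nM final. Bound ligand collected on PEI-treated GF/B filters, scintillation-counted. IC50 by Hill fit; reported as Ki.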

[2] = test system: zymostenol accumulation in EpiSC-derived OPCs (EBP); assay: GC/MS-based sterol profiling (zymostenol accumulation); assay type: cell-based; conditions: Mus musculus, 24 hours, 8 doses from 0.15 nM to 333 nM, read-out: Zymostenol GCMS EC50
Procedure, shortened: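 Zymostenol level is expressed relative to that after 24 h with 100 nM positive-control reference, measured by full-scan GC/MS (m/z 458) with cholesterol-d7 internal standard after BSTFA derivatisation. Cells were EpiSC-derived OPCs, 100,000/well in N2B27 without growth factors, treated 24 h, from two or more independent platings.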

Structure (SMILES)	Ki [1] [µM]	EC50 [2] [µM]
CC(C)n1nc(-c2cncc(C(F)(F)F)c2)cc1[C@H]1[C@@H]2C[C@H](N3CC[C@@]4(CCS(=O)(=O)C4)C3)C[C@@H]21 (single isomer, unassigned) [Compound 9*]	0.0201	0.0027
CC(C)n1nc(-c2cncc(C(F)(F)F)c2)nc1[C@H]1[C@@H]2C[C@@H](N3CCC4(C3)CS(=O)(=O)C4)C[C@@H]21 (single isomer, unassigned) [Compound 16]	0.021	0.0067
CC(C)n1nc(-c2cncc(C(F)(F)F)c2)nc1[C@H]1[C@@H]2C[C@H](N3CCC4(C3)CS(=O)(=O)C4)C[C@@H]21 (single isomer, unassigned) [Compound 17]	0.116	0.042
CC(C)n1nc(-c2cc(C(F)(F)F)ccn2)cc1[C@H]1[C@@H]2C[C@@H](N3CCC4(C3)CS(=O)(=O)C4)C[C@@H]21 (single isomer, unassigned) [Compound 20]	0.0489	0.0012
CCn1nc(-c2cncc(C(F)(F)F)c2)cc1[C@H]1[C@@H]2C[C@@H](N3CCC4(C3)CS(=O)(=O)C4)C[C@@H]21 (single isomer, unassigned) [Compound 24]	0.0199	0.0018
CC(C)n1nc(-c2cncc(C(F)(F)F)c2)cc1[C@H]1[C@@H]2C[C@@H](N3CCC4(CC3)CS(=O)(=O)C4)C[C@@H]21 (single isomer, unassigned) [Compound 38]	0.041	0.0029
CC(C)n1nc(-c2cccc(C(F)(F)F)n2)cc1[C@H]1[C@@H]2C[C@@H](N3CCC4(CC3)CS(=O)(=O)C4)C[C@@H]21 (single isomer, unassigned) [Compound 47]	0.175	0.0019
CC(C)n1nc(-c2ccnc(C(F)(F)F)n2)cc1[C@H]1[C@@H]2C[C@@H](N3CCC4(CC3)CS(=O)(=O)C4)C[C@@H]21 (single isomer, unassigned) [Compound 49]	0.0649	0.0027
CC(C)n1nc(-c2ccnc(C(F)(F)F)n2)cc1[C@H]1[C@@H]2C[C@H](N3CCC4(CC3)CS(=O)(=O)C4)C[C@@H]21 (single isomer, unassigned) [Compound 50]	0.049	0.02
CC(C)n1nc(-c2cncc(C(F)(F)F)c2)cc1[C@H]1[C@@H]2C[C@@H](N3CC4(C3)CS(=O)(=O)C4)C[C@@H]21 (single isomer, unassigned) [Compound 98*]	0.054	0.055
CC(C)n1nc(-c2cncc(C(F)(F)F)c2)cc1[C@H]1[C@@H]2C[C@H](N3CC4(C3)CS(=O)(=O)C4)C[C@@H]21 (single isomer, unassigned) [Compound 99*]	0.048	0.086
CC(C)n1nc(-c2ccc(C(F)(F)F)cc2)cc1[C@H]1[C@@H]2C[C@H](N3CCC4(C3)CS(=O)(=O)C4)C[C@@H]21 [Compound 5, 6-((1R,3r,5S,6r)-6-(1-Isopropyl-3-(4-(trifluoromethyl)phenyl)-1H-pyrazol-5-yl)bicyclo[3.1.0]hexan-3-yl)-2-thia-6-azaspiro[3.4]octane 2,2-dioxide]	0.043	0.0036
CC(C)n1nc(-c2ccnc(C(F)(F)F)n2)cc1[C@H]1[C@@H]2C[C@H](N3CCC4(C3)CS(=O)(=O)C4)C[C@@H]21 [Compound 15, 6-((1R,3r,5S,6r)-6-(1-Isopropyl-3-(2-(trifluoromethyl)pyrimidin-4-yl)-1H-pyrazol-5-yl)bicyclo[3.1.0]hexan-3-yl)-2-thia-6-azaspiro[3.4]octane 2,2-dioxide]	0.02	0.0032
CC(C)n1nc(-c2ccnc(C(F)(F)F)n2)cc1[C@H]1[C@@H]2C[C@@H](N3CCC4(C3)CS(=O)(=O)C4)C[C@@H]21 [Compound 28, 6-((1R,3s,5S,6r)-6-(1-isopropyl-3-(2-(trifluoromethyl)pyrimidin-4-yl)-1H-pyrazol-5-yl)bicyclo[3.1.0]hexan-3-yl)-2-thia-6-azaspiro[3.4]octane 2,2-dioxide]	0.0246	0.006
C=C(c1cc([C@H]2[C@@H]3C[C@H](N4CCC5(C4)CS(=O)(=O)C5)C[C@@H]32)n(C(C)C)n1)C(F)(F)F [Compound 31, 6-((1R,3r,5S,6r)-6-(1-Isopropyl-3-(3,3,3-trifluoroprop-1-en-2-yl)-1H-pyrazol-5-yl)bicyclo[3.1.0]hexan-3-yl)-2-thia-6-azaspiro[3.4]octane 2,2-dioxide]	0.0192	0.0071

Now those with a lower Ki [1], led by results:

Ki [1] [µM]	EC50 [2] [µM]	Structure (SMILES)
0.0184	0.0059	CC(C)n1nc(-c2cncc(C(F)(F)F)c2)cc1[C@H]1[C@@H]2C[C@H](N3CCC4(CC3)CS(=O)(=O)C4)C[C@@H]21 (single isomer, unassigned) [Compound 40]
0.0181	0.029	CC(C)n1nc(-c2cnc(C(F)(F)F)nc2)cc1[C@H]1[C@@H]2C[C@H](N3CCC4(C3)CS(=O)(=O)C4)C[C@@H]21 [Compound 6, 6-((1R,3r,5S,6r)-6-(1-Isopropyl-3-(2-(trifluoromethyl)pyrimidin-5-yl)-1H-pyrazol-5-yl)bicyclo[3.1.0]hexan-3-yl)-2-thia-6-azaspiro[3.4]octane 2,2-dioxide]
0.0171	0.0031	CC(C)n1nc(-c2cc(C(F)(F)F)ccn2)cc1[C@H]1[C@@H]2C[C@H](N3CCC4(C3)CS(=O)(=O)C4)C[C@@H]21 (single isomer, unassigned) [Compound 21]
0.017	0.0023	CC(C)n1nc(-c2ccnc(C(F)(F)F)c2)cc1[C@H]1[C@@H]2C[C@@H](N3CCC4(C3)CS(=O)(=O)C4)C[C@@H]21 (single isomer, unassigned) [Compound 18]
0.0146	0.00036	CCn1nc(-c2cncc(C(F)(F)F)c2)cc1[C@H]1[C@@H]2C[C@H](N3CCC4(C3)CS(=O)(=O)C4)C[C@@H]21 (single isomer, unassigned) [Compound 25]
0.0145	0.003	CC(C)n1nc(-c2cncc(C(F)(F)F)c2)cc1[C@H]1[C@@H]2C[C@H](N3CCC4(C3)CS(=O)(=O)C4)C[C@@H]21 (single isomer, unassigned) [Compound 4]
0.0135	0.0053	CC(C)n1nc(C2(C(F)(F)F)CC2)cc1[C@H]1[C@@H]2C[C@H](N3CCC4(C3)CS(=O)(=O)C4)C[C@@H]21 [Compound 32, 6-((1R,3r,5S,6r)-6-(1-Isopropyl-3-(1-(trifluoromethyl)cyclopropyl)-1H-pyrazol-5-yl)bicyclo[3.1.0]hexan-3-yl)-2-thia-6-azaspiro[3.4]octane 2,2-dioxide]
0.0132	0.0072	CC(C)n1nc(-c2cccc(C(F)(F)F)n2)cc1[C@H]1[C@@H]2C[C@@H](N3CCC4(C3)CS(=O)(=O)C4)C[C@@H]21 (single isomer, unassigned) [Compound 11]
0.0125	0.01	CC(C)n1nc(-c2cccc(C(F)(F)F)n2)cc1[C@H]1[C@@H]2C[C@H](N3CCC4(CC3)CS(=O)(=O)C4)C[C@@H]21 (single isomer, unassigned) [Compound 48]
0.0124	0.012	CC(C)n1nc(C(F)(F)F)cc1[C@H]1[C@@H]2C[C@@H](N3CCC4(C3)CS(=O)(=O)C4)C[C@@H]21 (single isomer, unassigned) [Compound 22]
0.0124	0.012	CC(C)n1nc(C(F)(F)F)cc1[C@H]1[C@@H]2C[C@H](N3CCC4(C3)CS(=O)(=O)C4)C[C@@H]21 (single isomer, unassigned) [Compound 23]
0.012	0.0037	CC(C)n1nc(-c2cccc(C(F)(F)F)n2)cc1[C@H]1[C@@H]2C[C@H](N3CCC4(C3)CS(=O)(=O)C4)C[C@@H]21 (single isomer, unassigned) [Compound 12]
0.0096	0.0025	CC(C)n1nc(-c2ccnc(C(F)(F)F)c2)cc1[C@H]1[C@@H]2C[C@H](N3CCC4(C3)CS(=O)(=O)C4)C[C@@H]21 (single isomer, unassigned) [Compound 19]
0.00591	0.00181	CC(C)n1nc(-c2cccc(C(F)(F)F)c2)cc1[C@H]1[C@@H]2C[C@@H](N3CCC4(C3)CS(=O)(=O)C4)C[C@@H]21 (single isomer, unassigned) [Compound 2]
